System: pediatric subjects with acute hypoxemic respiratory failure (AHRF)
Experiment: Pediatric AHRF study: adverse events, serious adverse events, deaths, discontinuations
Format: in vivo, human
Details: 5 ppm
Experimental: This was a prospective, multicenter, randomized, double-blind, placebo-controlled, parallel-group study of the safety and efficacy of inhaled nitric oxide in pediatric subjects with acute hypoxemic respiratory failure (AHRF). The subjects were randomized to receive either 5 ppm inhaled nitric oxide or placebo.
Nitric Oxide for inhalation at 5 ppm was administered continuously into the inspiratory limb of the ventilator circuit in mechanically ventilated subjects using a blinded version of the INOvent® delivery system.
Subjects received 100% treatment gas (nitric oxide 5 ppm or placebo [nitrogen gas]) until Day 28 or extubation, whichever occurred first.
This was a prospective, multicenter, randomized, double-blind, placebo-controlled, Phase III study to assess the effects of nitric oxide for inhalation in the treatment of acute hypoxic respiratory failure (AHRF) in pediatric subjects. The study population consisted of male and female pediatric subjects, aged 44 weeks postconceptional age to 16 years age, who were admitted to the pediatric intensive care unit (PICU) and who required intubation because of AHRF. The inclusion/exclusion criteria are described in the Patients section below.
Standardized ventilatory management and weaning procedures were used. Ventilatory management was used based on an “open lung approach” using positive end-expiratory pressure (PEEP) to increase lung volume and limiting tidal volumes to reduce plateau pressures. Subjects received nitric oxide for inhalation at 5 ppm or placebo (100% Grade 5 nitrogen gas) into the inspiratory limb of the ventilator circuit using a blinded version of the INOvent® delivery system. The subjects were treated until Day 28 or extubation, whichever occurred first. Subjects were assessed daily using a spontaneous breathing trial, according to the institution's standard of care. Arterial blood gases (ABG), ventilator settings, methemoglobin, oxygenation index, systolic blood pressure, diastolic blood pressure, Pediatric Risk of Mortality (PRISM) III score, and subject positioning (prone or supine) were performed/recorded at specified times during the study. Selected centers also performed plasma cytokine assays, bronchoalveolar lavage fluid (BALF) assays, and a 6-month follow-up assessment.

[1] = AE in which death was the outcome
[2] = AE not suspected related to study treatment
[3] = AE suspected related to study treatment
[4] = AE with death as outcome, not suspected related to treatment

[N]=O [Nitric Oxide, nitric oxide]
61.5%: subjects reporting AEs (16 of 26 subjects, placebo 72.4%)
2: subjects who died during treatment
1 (3.8%) n (%): Bradycardia [1] | Hypotension [1] | Acidosis [2] | Anemia [2] | Apnea [2] | Arrhythmia [2] | Ascites [2] | Bacteria, blood [2] | Bronchoalveolar lavage [2] | Chest tube insertion [2] | Fungemia [2] | Grangrene [2] | Hemoglobinemia [2] | Hepatosplenomegaly [2] | Hypercalcemia [2] | Hyperchloremia [2] | Hyperglycemia [2] | Hyperkalemia [2] | Hypocalcemia [2] | Leukocytosis [2] | Metabolic alkalosis [2] | Pneumonia [2] | Pneumonia, staphylococcal [2] | Pseudomonal sepsis [2] | Renal failure [2] | Respiratory failure [2] | Thrombocythemia [2] | Urinary tract infection [2] | Urinary tract infection, fungal [2] | Urine output decreased [2] | Bradycardia [4]
3.9%: frequency of treatment discontinuation due to AEs (1 of 26 subjects, placebo 6.9%) | subjects with serious AEs (SAEs) (1 of 26 subjects, placebo 27.6%)
7.7%: subjects with severe AEs (2 subjects, placebo 34.5%)
1: subjects who died during the follow-up period after treatment
bradycardia and hypotension: most frequently reported AEs
3 (11.5%) n (%): Bradycardia [2] | Hypotension [2]
2 (7.7%) n (%): Agitation [2] | Bacteremia [2] | Deep vein thrombosis [2] | Hypernatremia [2] | Hypokalemia [2] | Oxygen saturation decreased [2] | Pneumothorax [2] | Tracheitis [2] | Unevaluable event [2]
0 (0.0) n (%): Brain edema [1] | Cardiac arrest [1] | Diabetic ketoacidosis [1] | Hemolytic anemia [1] | Hepatic failure [1] | Intracranial pressure increased [1] | Multi-organ failure [1] | Pancreatitis [1] | Pneumonia, aspergillus [1] | Pulmonary hemorrhage [1] | Renal failure [1] | Renal impairment [1] | Sepsis [1] | Abdominal distension [2] | Bacteria, sputum [2] | Bladder distension [2] | Brain edema [2] | C-reactive protein increased [2] | Cardiac arrest [2] | Cerebral artery occlusion [2] | Device failure [2] | Diabetic ketoacidosis [2] | Diarrhea [2] | Disseminated intravascular coagulation [2] | Empyema [2] | Feeding disorder [2] | Fungus culture positive [2] | Fungus urine test positive [2] | Gastrointestinal hemorrhage [2] | Generalized edema [2] | Hematuria [2] | Hemolytic anemia [2] | Hemopneumothorax [2] | Hemorrhage [2] | Hemothorax [2] | Hepatic failure [2] | Hyperammonemia [2] | Hypercapnia [2] | Hyperlipidemia [2] | Hypertension [2] | Hypochloremia [2] | Hypothermia [2] | Hypoxia [2] | Intracranial pressure increased [2] | Labile blood pressure [2] | Lung infection, pseudomonal [2] | Medical device removal [2] | Metabolic acidosis [2] | Multi-organ failure [2] | Ocular icterus [2] | Oliguria [2] | Pancreatitis [2] | Pleural effusion [2] | Pneumomediastinum [2] | Pneumonia, aspergillus [2] | Pruritus [2] | Pulmonary hemorrhage [2] | Pulmonary hypertension [2] | Pyrexia [2] | Renal failure, acute [2] | Renal impairment [2] | Respiratory acidosis [2] | Sepsis [2] | Skin injury [2] | Subdural hematoma [2] | Thrombocytopenia [2] | White blood cell count increased [2] | Abdominal distension [3] | Acidosis [3] | Agitation [3] | Anemia [3] | Apnea [3] | Arrhythmia [3] | Ascites [3] | Bacteremia [3] | Bacteria, blood [3] | Bacteria, sputum [3] | Bladder distension [3] | Bradycardia [3] | Brain edema [3] | Bronchoalveolar lavage [3] | C-reactive protein increased [3] | Cardiac arrest [3] | Cerebral artery occlusion [3] | Chest tube insertion [3] | Deep vein thrombosis [3] | Device failure [3] | Diabetic ketoacidosis [3] | Diarrhea [3] | Disseminated intravascular coagulation [3] | Empyema [3] | Feeding disorder [3] | Fungemia [3] | Fungus culture positive [3] | Fungus urine test positive [3] | Gastrointestinal hemorrhage [3] | Generalized edema [3] | Grangrene [3] | Hematuria [3] | Hemoglobinemia [3] | Hemolytic anemia [3] | Hemopneumothorax [3] | Hemorrhage [3] | Hemothorax [3] | Hepatic failure [3] | Hepatosplenomegaly [3] | Hyperammonemia [3] | Hypercalcemia [3] | Hypercapnia [3] | Hyperchloremia [3] | Hyperglycemia [3] | Hyperkalemia [3] | Hyperlipidemia [3] | Hypernatremia [3] | Hypertension [3] | Hypocalcemia [3] | Hypochloremia [3] | Hypokalemia [3] | Hypotension [3] | Hypothermia [3] | Hypoxia [3] | Intracranial pressure increased [3] | Labile blood pressure [3] | Leukocytosis [3] | Lung infection, pseudomonal [3] | Medical device removal [3] | Metabolic acidosis [3] | Metabolic alkalosis [3] | Multi-organ failure [3] | Ocular icterus [3] | Oliguria [3] | Oxygen saturation decreased [3] | Pancreatitis [3] | Pleural effusion [3] | Pneumomediastinum [3] | Pneumonia [3] | Pneumonia, aspergillus [3] | Pneumonia, staphylococcal [3] | Pneumothorax [3] | Pruritus [3] | Pseudomonal sepsis [3] | Pulmonary hemorrhage [3] | Pulmonary hypertension [3] | Pyrexia [3] | Renal failure [3] | Renal failure, acute [3] | Renal impairment [3] | Respiratory acidosis [3] | Respiratory failure [3] | Sepsis [3] | Skin injury [3] | Subdural hematoma [3] | Thrombocythemia [3] | Thrombocytopenia [3] | Tracheitis [3] | Unevaluable event [3] | Urinary tract infection [3] | Urinary tract infection, fungal [3] | Urine output decreased [3] | White blood cell count increased [3] | Brain edema [4] | Cardiac arrest [4] | Diabetic ketoacidosis [4] | Hemolytic anemia [4]
